# Data published in patent publication US6541514B2, “Process for the manufacture of 117Sn diethylenetriaminepentaacetic acids” (Brookhaven Science Associates, LLC, priority 2001, dated 2003).
# Where two headings read alike, the source gives them in different places.
# Tests used:
# [1] = in vivo; cited from earlier work
# [2] = cited from earlier work; for relief of bone pain: humans
# [3] = cited from earlier work; for myelosuppression / bone marrow toxicity: in vivo
# [4] = system: Chinese hamster V79 cells; assay: Radiotoxicity in cultured mammalian cells (colony survival); type: cell-based; conditions: 14 h labeling, 72 h at 10.5° C.
# Protocol: The present study examines the radiotoxicity of composition of the invention when incorporated into cultured mammalian cells.
# The cells were then resuspended in fresh culture medium and maintained at 10.5° C. on a rocker-roller for 72 h. Cells were then washed again, serially diluted, and seeded into culture dishes. After 1 week the colonies were stained and counted, the surviving fraction compared to unlabeled controls was determined.
molecule,measurement,setting,value
O=[32P](O)(O)O [^32P orthophosphate],increase in uptake in bone around osseous metastases as compared to normal bone,[1],3- to 5 fold
same,duration of pain relief / response,[2]; patients,two to four months
same,time to pain relief / clinical benefit after administration,[2]; patients,within five to fourteen days
"[89Sr+2].[Cl-].[Cl-] [^89Sr, ^89SrCl2]",decrease in platelet count,[3]; four weeks after therapy,30%
same,biological half-life in normal bone,[1],14 days
same,biological half-life in osteoblastic metastases,[1],exceeds 50 days
same,duration of pain relief / response,[2]; patients,three to six months
same,patients with bone pain / symptom relief,[2]; patients,60 to 80%
same,time to pain relief / clinical benefit after administration,[2]; patients,two to four weeks after injection
"O=P([O-])(O)CN(CCN(CP(=O)([O-])O)CP(=O)(O)O)CP(=O)([O-])O.[153Sm+3] [^153Sm-EDTMP, ^153Sm ethylenediaminetetramethylenephosphonate (EDTMP) complex]",myelosuppression / bone marrow toxicity,[3],Reversible myelosuppression
same,duration of pain relief / response,[2]; patients,four to forty weeks
same,time to pain relief / clinical benefit after administration,[2]; patients,within two weeks
^117mSn (Sn^4+) diethylenetriaminepentaacetic acid (DTPA) [^117mSn(Sn^4+)DTPA],myelosuppression / bone marrow toxicity,[3],no substantial toxicity to marrow tissues
same,myelosuppression / bone marrow toxicity,[3]; listed as 117mSn (Sn^4+) DTPA,None of the ^117mSn (Sn^4+) DTPA compositions used in WO 95/29706 exhibited bone marrow toxicity
same,"bone uptake and retention compared with 32P orthophosphate, 153Sm-EDTMP, 186Re-HEDP and 89SrCl2",[1],higher bone uptake and retention
same,relief of bone pain,[2],effective agent for palliation of pain caused by bone metastases
same,relief of bone pain,[2]; listed as 117mSn (Sn^4+) DTPA,dose-dependent relief of bone pain
same,cellular uptake required to achieve 37% survival,[4],0.95 mBq/cell
